Results taken from article PMC5669819 (Molecular cancer therapeutics, 2017).

How the values were obtained:
PI3Kα = PI3Kα (Homo sapiens, UniProt P42336); test: Adapta TR-FRET lipid kinase assay with purified enzyme; type: biochemical
MEK1 = MEK1 (Homo sapiens, UniProt Q02750); type: biochemical
MEK1, sequence (Q02750 whole entry): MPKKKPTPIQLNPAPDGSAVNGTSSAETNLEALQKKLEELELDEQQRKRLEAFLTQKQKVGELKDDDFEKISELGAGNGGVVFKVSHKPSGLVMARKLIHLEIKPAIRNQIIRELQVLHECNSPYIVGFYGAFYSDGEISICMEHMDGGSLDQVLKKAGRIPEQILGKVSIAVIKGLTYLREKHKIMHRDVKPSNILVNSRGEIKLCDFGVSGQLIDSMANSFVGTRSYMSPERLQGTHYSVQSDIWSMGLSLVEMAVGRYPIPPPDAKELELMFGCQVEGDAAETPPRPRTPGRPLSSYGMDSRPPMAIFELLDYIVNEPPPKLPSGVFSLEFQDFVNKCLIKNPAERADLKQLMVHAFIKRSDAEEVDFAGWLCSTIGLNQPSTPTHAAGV

PI3Kα, sequence (P42336 whole entry): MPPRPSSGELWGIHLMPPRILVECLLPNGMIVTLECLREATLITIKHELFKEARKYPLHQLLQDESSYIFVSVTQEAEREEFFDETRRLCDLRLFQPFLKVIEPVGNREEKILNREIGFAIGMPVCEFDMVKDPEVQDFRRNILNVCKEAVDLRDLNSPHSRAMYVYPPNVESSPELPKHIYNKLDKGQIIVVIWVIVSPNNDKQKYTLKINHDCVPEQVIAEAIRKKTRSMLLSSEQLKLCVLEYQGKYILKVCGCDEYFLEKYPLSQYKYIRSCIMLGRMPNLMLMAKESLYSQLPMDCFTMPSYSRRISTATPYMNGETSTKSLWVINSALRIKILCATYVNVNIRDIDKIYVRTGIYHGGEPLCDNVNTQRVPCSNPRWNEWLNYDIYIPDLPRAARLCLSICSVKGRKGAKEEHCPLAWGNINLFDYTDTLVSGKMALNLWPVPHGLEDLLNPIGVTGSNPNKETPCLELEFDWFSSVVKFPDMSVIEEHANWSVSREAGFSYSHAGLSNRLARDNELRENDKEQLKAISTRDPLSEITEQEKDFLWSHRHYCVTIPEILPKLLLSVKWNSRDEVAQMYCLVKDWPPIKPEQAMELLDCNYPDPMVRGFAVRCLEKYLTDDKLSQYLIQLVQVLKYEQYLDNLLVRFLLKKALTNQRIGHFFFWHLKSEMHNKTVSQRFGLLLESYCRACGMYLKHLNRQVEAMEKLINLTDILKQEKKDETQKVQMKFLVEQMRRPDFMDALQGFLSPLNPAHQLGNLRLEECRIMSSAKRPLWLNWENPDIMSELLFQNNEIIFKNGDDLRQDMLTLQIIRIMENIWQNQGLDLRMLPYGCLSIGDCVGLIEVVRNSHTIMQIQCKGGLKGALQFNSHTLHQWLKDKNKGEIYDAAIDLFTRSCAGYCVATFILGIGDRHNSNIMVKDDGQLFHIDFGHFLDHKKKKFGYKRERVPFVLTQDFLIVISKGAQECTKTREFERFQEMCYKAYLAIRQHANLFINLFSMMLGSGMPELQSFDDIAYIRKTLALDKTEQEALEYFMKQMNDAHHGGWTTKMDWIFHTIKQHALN
PI3Kα, sequence (P27986 2-724 partner): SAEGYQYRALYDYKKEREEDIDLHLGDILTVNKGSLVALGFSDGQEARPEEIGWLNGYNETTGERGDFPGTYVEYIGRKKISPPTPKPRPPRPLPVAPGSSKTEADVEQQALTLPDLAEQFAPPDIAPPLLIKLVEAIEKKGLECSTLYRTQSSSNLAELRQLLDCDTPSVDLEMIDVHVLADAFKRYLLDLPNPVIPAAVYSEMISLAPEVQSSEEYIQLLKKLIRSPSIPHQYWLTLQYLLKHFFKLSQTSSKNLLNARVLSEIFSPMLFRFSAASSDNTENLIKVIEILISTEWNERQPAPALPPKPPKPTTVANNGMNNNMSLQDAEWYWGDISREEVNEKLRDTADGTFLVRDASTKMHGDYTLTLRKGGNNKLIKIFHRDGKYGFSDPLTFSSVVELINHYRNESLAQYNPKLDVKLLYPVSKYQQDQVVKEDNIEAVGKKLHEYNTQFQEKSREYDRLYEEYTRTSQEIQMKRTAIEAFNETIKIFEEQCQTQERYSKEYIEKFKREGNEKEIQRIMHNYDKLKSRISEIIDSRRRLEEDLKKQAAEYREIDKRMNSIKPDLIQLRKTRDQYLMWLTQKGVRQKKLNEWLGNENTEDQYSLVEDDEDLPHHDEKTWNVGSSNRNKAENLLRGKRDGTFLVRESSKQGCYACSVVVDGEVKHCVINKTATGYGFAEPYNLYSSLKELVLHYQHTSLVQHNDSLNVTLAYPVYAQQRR

- IC50 (PI3Kα): 191 nM
- IC50 (MEK1): 398 nM
Structure (SMILES): O=C(NOCCOCCOCCOCCN1CCN(c2nc(N3CCOCC3)nc(-n3c(C(F)F)nc4ccccc43)n2)CC1)c1ccc(F)c(F)c1Nc1ccc(I)cc1F [ST-162]
